Here are results for one compound from article PMC12517401, “Design, synthesis, and antiproliferative activity of new 2-amino-pyrano[3,2-c]quinoline-3-carbonitriles as potential EGFR, BRAF^V600E, and HER-2 inhibitors” (RSC Advances, 2025).

Where two headings read alike, the source gives them in different places.

In test [1] the test system is pancreatic cancer (Panc-1). The test is described as follows: Antiproliferative assay, Panc-1. It is filed as cell-based. Particulars: Homo sapiens; Panc-1 pancreatic cancer cell line; read-out: Antiproliferative activity IC50 ± SEM (nM) Panc-1. As to the method: (§1) 4.2.2. Assay for antiproliferative effect
(§2) To explore the antiproliferative potential of compounds propidium iodide fluorescence assay was performed using different cell lines such as Panc-1 (pancreas cancer cell line), MCF-7 (breast cancer cell line), HT-29 (colon cancer cell line) and A-549 (epithelial cancer cell line), respectively. To calculate the total nuclear DNA, a fluorescent dye (propidium iodide, PI) is used which can attach to the DNA, thus offering a quick and precise technique. PI cannot pass through the cell membrane and its signal intensity can be considered as directly proportional to quantity of cellular DNA. Cells whose cell membranes are damaged or have changed permeability are counted as dead ones. The assay was performed by seeding the cells of different cell lines at a density of 3000-7500 cells/well (in 200μl medium) in culture plates followed by incubation for 24h at 37 °C in humidified 5%CO2/95% air atmospheric conditions. The medium was removed; the compounds were added to the plates at 10 μM concentrations (in 0.1% DMSO) in triplicates, followed by incubation for 48h. DMSO (0.1%) was used as control. After incubation, medium was removed followed by the addition of PI (25 μl, 50μg/mL in water/medium) to each well of the plates. At -80 °C, the plates were allowed to freeze for 24 h, followed by thawing at 25 °C. A fluorometer (Polar-Star BMG Tech) was used to record the readings at excitation and emission wavelengths of 530 and 620 nm for each well. The percentage cytotoxicity of compounds was calculated using the following formula:
(§3) Where ATC= Absorbance of treated cells and AC= Absorbance of control. Erlotinib was used as positive control in the assay. […]

Test [2] deals with lung cancer (A-549). As to the kind of experiment: Antiproliferative assay, A-549. It is filed as cell-based. Particulars: Homo sapiens, A549; A-549 lung cancer cell line; read-out: Antiproliferative activity IC50 ± SEM (nM) A-549. The protocol:
as §1, §2, §3
(1 picture or pasted object on this page, not shown here)

Test [3] concerns colon cancer (HT-29). As to the kind of experiment: Antiproliferative assay, HT-29. It is filed as cell-based. Particulars: Homo sapiens; HT-29 colon cancer cell line; read-out: Antiproliferative activity IC50 ± SEM (nM) HT-29. The protocol:
as §1, §2, §3

The test system of test [4] is BRAF^V600E. Details: method as in PMID 33279248. Particulars: earlier study of the authors; cited from earlier work.
The test system of test [5] is breast cancer (MCF-7). The test is described as follows: Antiproliferative assay, MCF-7. In kind it is cell-based, human. Particulars: Homo sapiens, MCF7; MCF-7 breast cancer cell line; read-out: Antiproliferative activity IC50 ± SEM (nM) MCF-7. As to the method: as §1, §2, §3
The test system of test [6] is BRAF^V600E. Details: method as in doi:10.1016/j.molstruc.2023.136953. The following applies: earlier study of the authors; cited from earlier work.

Turning to `C#Cc1cccc(Nc2ncnc3cc(OCCOC)c(OCCOC)cc23)c1` [Erlotinib, reference compound], the 50% inhibitory concentration (IC50) (usually the concentration that gives 50% inhibition) was 30 ± 3 nM in test [1]; 30 ± 3 nM in test [2]; 30 ± 3 nM in test [3]; […] in test [4]; 40 ± 3 nM in test [5]; […] in test [6].
